US9505780B2, “Thienopyranones as kinase and epigenetic inhibitors” (SignalRx Pharmaceuticals, Inc., priority 2014, dated 2016)

How the values were obtained:
BRD4-1 = BRD4-1 (Homo sapiens (Human), UniProt O60885); test: BRD4 region 1 (BRD4-1) inhibition; assay type: biochemical
BRD4-2 = BRD4-2 (Homo sapiens (Human), UniProt O60885); test: BRD4 region 2 (BRD4-2) inhibition; assay type: biochemical
PI3Kβ = PI3Kβ (Homo sapiens (Human), UniProt P42338); test: PI3K beta isoform inhibition; assay type: biochemical
PI3Kδ = PI3Kδ (Homo sapiens (Human), UniProt O00329); test: PI3K delta isoform inhibition; assay type: biochemical
Source text: Inhibitory activity can be determined routinely using known methods and also front commercial vendors offering this service for kinases and bromodomain proteins. […] In vivo, PI3K inhibition can be determined from target tissue biopsies by standard tissue processing to disrupt cells and then performing Western Blot analysis to determine the presence or absence of pAKT (substrate of PI3K) relative to a control sample. The activity of a compound of the invention as an inhibitor of a bromodomain-containing protein, such as a BET protein, such as BRD2, BRD3, BRD4, and/or BRDT, or an isoform or mutant thereof may be determined in vitro, in vivo, or in a cell line. In vitro assays include assays that determine inhibition of bromodomain-containing proteins. Alternatively, inhibitor binding may be determined by running a competition experiment where a provided compound is incubated with a bromodomain-containing protein, such as a BET protein bound to known ligands, labeled or unlabeled. For example, bromodomain inhibition can be determined in vitro using Alpha Screen Technology (http://www.reactionbiology.com/webapps/site/NewsPDFs/Bromodomain%20Assay%20Platform%20for%20Drug%/20Screening%20and%20Discovery.pdf). In vivo bromodomain inhibition can be determined indirectly by evaluating the amount of protect present of proteins whose genes' transcription is influenced or controlled by the bromodomain protein, for example, the MYCN protein transcription is controlled by BRD4 (J. E. Delmore et al., Cell 2011, 146, 904-917; A. Puissant, Cancer Discov. 2013, 3, 308-323). Bromodomain inhibition may also be predicted by in silico modeling as described below in the Examples.
(§1) Several TP Scaffold compounds (structures shown in FIG. 2 and Table 3) were tested for inhibition activity against isoforms of PI3K (alpha, beta, gamma, and delta isoforms) and the bromodomain protein BRD4 at regions 1 (BRD4-1) and 2 (BRD4-2).

PI3Kγ = PI3Kγ (Homo sapiens (Human), UniProt P48736); test: PI3K gamma isoform inhibition; assay type: biochemical
BRD4 = BRD4 (Homo sapiens, UniProt O60885); test: BRD4 inhibition assay (region not distinguished); assay type: biochemical; conditions: BRD4 regions 1 and 2
SKNBE (2) cells = test: Western blot of p-AKT and N-MYC in SKNBE(2) cells; assay type: cell-based, human; conditions: 24 hrs treatment, IGF stimulated
Protocol: Cells were stimulated with 50 ng/ml IGF for 30 min and used for lysate preparation. Proteins were quantitated by the BCA protein assay (Pierce). Equal amounts of protein were resolved by polyacrylamide gels, transferred to nitrocellulose membrane and probed by Western blot with the following primary antibodies: p-AKT(Ser473), API (Cell Signaling Technologies), N-MYC, CyclinD1 and β-actin (Santa Cruz Biotechnology).

[1] = test system: MYCN amplified SKNBE(2) cells; test: Brd4 chromatin precipitation, quantitative PCR of MYCN promoter region; assay type: cell-based, human; conditions: 24 hours exposure
Protocol: MYCN amplified SKNBE(2) cells were exposed to inhibitors for 24 hours then chromatin was precipitated with Brd4 (rabbit polyclonal antibody) along with rabbit IgG as a negative control (IgG). Precipitated chromatin was analyzed for the MYCN gene (2 sites within the MYCN promoter region) by quantitative PCR and enrichment is shown as the percentage of total input DNA (FIG. 4). The negative control region primers amplify within a gene desert region approximately 1 Mb away from MYCN (MYC-N NR). Error bars represent ±SEM of triplicate data. P<0.05 as compared to positive control (paired t-test). Positive control: No inhibitor; IP with BRD4 antibody, Negative Control: No inhibitor, IP with rabbit IgG.

Panc02 = test: Orthotopic pancreatic model of spontaneous metastasis; assay type: in vivo, WT mice; conditions: 50 mg/kg, three times a week
Protocol: Panc02 (1×10^6) tumor cells were injected into the pancreas of WT mice (n=18). After 20 days, mice were randomized into two groups. One group was treated with DMSO (control) and the other group was treated with 50 mg/kg of SF2523, three tunes a week. Tumors were removed 35 days after tumor implantation. Values are mean±SEM (n=8 in each gp; P<0.01; pair wise two-sided Student's t test). […] Values are mean±SEM (n=7; P<0.01; pair wise two-sided. Student's t test). The data are representative of three independent experiments performed.

IMR32 cell line = test: Real-time PCR of N-myc and Cyclin D1 mRNA; assay type: cell-based; conditions: 5 μM, 24 hrs
Protocol: Cells were stimulated with 50 ng/ml IGF and used for RNA Isolation after 24 hrs of treatment with various inhibitors. The results for N-Myc are shown in FIG. 7A and for Cyclin D1 in FIG. 7B.
The experiment of Example 7 was repeated in the IMR32 cell line (MYCN amplified neuroblastoma cancer cell line).

B16 melanoma cells = test: Mouse model of melanoma metastasis, B16 F10 luciferase cells by tail vein; assay type: in vivo, WT mice; conditions: 50 mg/kg every other day, 15 days
Source text: The luciferase signal was monitored every third day by rejecting luciferin, until the lungs were harvested on day 15 (n=5). […] Lungs extracted from these animals are shown below the luciferase imaged pictures supporting the repression of tumor growth in Cmpd 28-treated mice.

PC3 = test: Cellular PI3K inhibitory activity, pAKT Ser473 ELISA; assay type: cell-based; conditions: Homo sapiens, PC-3; IGF-1 stimulated, pAKT serine 473
Protocol: Biological testing of compounds of Formula I. Representative compounds of the invention were tested for cellular PI3K inhibitory activity (as measured by the most robust marker of pathway activity pAKT) in a prostate cancer cell line (PC3), which is summarized in Table 3. […] After this time period the cells were serum starved for 5 hours followed by application of the test compound. Test compound was added as a DMSO (dimethyl sulfoxide) solution such that the final DMSO concentration in the cell media was less than or equal to 0.2% by volume. After 30 minutes of exposure the growth factor stimulant, human IGF-1 (Pepro Tech, Inc., Rocky Hill, N.J., Cat. #100-11), was added in each well. After 30 minutes of IGF-1 exposure, cells were removed the media and cell lysates were prepared using RIPA Lysis buffer (Upstate, Lake Placid, N.Y., Cat. #20-188), keeping on ice. The pAKT serine 473 level was measured in duplicate samples of the cell lysates using commercially available assays such as the Pathscan® Sandwich ELISA kit for Ser473 pAKT (Cell Signaling, Danvers, Mass. Cat. #7160). A SpectraMax Plus spectrophotometric plate reader (Molecular Devices, Sunnydale, Calif.) was used to measure the optical density signal for pAKT at 450 nm (OD450 nm). The pAKT OD450 nm readings were normalized by total protein amount in the cell lysates determined by standard methods.

NB9464 [2] = test: NB9464 neuroblastoma tumor growth in nude mice; conditions: 50 mg/kg, 3 days a week for 1.5 weeks, intra-peritoneal
Source text: MYCN-overexpressing murine neuroblastoma cells (NB9464) were transplanted into nude mice, grown lot 24 days and randomized into two groups.

PI3Kα = PI3Kα (Homo sapiens (Human), UniProt P42336); test: PI3K alpha isoform inhibition; assay type: biochemical
SKNBE(2) = test: Cytotoxicity / proliferation study, alone and in combination; assay type: cell-based, human
NB9464 [3] = test: as above; assay type: cell-based, murine
[4] = test system: MYCN-dependent MB patient derived xenograft (PDX) cell line; test: as above; assay type: cell-based
PI3K = PI3K inhibition (isoform not distinguished); assay type: biochemical
Protocol: as §1
All thienopyranone-based compounds tested inhibited either PI3K or BRD4 or both PI3K and BRD4. […] JQ1+, a known bromodomain inhibitor, was used as reference compound.

PI-3 kinases = conditions: cited from earlier work
breast cancer stem cells = conditions: decreased from 11%; tumors with high HER2; cited from earlier work

Sequence of PI3Kδ (O00329 whole entry, canonical isoform): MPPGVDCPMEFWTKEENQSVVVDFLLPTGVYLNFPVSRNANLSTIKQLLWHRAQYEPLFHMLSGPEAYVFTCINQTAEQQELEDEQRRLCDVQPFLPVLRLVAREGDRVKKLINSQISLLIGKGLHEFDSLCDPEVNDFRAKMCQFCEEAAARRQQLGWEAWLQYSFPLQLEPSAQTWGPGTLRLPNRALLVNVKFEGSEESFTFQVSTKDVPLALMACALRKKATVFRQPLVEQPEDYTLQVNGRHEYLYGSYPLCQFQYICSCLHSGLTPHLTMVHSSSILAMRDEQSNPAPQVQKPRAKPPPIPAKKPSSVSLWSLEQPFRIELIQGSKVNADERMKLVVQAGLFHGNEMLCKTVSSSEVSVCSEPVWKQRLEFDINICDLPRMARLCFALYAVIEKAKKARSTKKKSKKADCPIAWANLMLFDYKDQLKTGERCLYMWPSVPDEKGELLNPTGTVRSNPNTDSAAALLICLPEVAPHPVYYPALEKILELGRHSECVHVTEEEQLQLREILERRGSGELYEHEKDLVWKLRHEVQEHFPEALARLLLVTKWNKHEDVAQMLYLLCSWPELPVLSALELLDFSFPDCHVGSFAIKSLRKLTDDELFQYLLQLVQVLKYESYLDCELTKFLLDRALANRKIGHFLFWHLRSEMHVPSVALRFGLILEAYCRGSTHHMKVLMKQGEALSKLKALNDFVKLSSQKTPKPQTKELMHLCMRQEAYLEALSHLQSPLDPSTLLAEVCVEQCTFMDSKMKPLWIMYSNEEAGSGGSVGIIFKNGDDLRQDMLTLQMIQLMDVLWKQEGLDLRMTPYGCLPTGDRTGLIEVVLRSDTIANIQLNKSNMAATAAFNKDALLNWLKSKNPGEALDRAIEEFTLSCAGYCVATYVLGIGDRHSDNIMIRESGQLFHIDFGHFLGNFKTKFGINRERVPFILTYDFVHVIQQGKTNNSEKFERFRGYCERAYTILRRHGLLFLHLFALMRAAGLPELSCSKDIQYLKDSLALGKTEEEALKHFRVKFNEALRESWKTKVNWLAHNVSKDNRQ
Sequence of PI3Kδ (P27986 whole entry partner, canonical isoform): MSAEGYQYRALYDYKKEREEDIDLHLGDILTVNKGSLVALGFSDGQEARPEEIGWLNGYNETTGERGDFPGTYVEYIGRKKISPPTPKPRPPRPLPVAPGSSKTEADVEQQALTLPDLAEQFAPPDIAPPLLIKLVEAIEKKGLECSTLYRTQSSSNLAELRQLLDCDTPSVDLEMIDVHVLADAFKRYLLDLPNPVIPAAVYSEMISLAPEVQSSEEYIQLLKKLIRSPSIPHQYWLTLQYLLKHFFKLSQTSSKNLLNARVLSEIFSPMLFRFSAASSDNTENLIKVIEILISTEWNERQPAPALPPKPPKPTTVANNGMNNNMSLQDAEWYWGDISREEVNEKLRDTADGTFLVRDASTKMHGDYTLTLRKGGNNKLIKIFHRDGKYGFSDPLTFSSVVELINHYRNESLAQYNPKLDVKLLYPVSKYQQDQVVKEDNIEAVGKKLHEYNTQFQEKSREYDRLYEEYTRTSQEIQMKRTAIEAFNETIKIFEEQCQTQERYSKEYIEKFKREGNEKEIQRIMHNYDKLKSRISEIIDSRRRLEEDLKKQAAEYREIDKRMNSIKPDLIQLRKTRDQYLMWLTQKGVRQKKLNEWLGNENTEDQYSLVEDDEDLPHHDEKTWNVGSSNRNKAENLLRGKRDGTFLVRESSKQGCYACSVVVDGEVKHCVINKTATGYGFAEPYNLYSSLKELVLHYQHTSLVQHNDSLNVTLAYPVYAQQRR
Sequence of PI3Kγ (P48736 whole entry, canonical isoform): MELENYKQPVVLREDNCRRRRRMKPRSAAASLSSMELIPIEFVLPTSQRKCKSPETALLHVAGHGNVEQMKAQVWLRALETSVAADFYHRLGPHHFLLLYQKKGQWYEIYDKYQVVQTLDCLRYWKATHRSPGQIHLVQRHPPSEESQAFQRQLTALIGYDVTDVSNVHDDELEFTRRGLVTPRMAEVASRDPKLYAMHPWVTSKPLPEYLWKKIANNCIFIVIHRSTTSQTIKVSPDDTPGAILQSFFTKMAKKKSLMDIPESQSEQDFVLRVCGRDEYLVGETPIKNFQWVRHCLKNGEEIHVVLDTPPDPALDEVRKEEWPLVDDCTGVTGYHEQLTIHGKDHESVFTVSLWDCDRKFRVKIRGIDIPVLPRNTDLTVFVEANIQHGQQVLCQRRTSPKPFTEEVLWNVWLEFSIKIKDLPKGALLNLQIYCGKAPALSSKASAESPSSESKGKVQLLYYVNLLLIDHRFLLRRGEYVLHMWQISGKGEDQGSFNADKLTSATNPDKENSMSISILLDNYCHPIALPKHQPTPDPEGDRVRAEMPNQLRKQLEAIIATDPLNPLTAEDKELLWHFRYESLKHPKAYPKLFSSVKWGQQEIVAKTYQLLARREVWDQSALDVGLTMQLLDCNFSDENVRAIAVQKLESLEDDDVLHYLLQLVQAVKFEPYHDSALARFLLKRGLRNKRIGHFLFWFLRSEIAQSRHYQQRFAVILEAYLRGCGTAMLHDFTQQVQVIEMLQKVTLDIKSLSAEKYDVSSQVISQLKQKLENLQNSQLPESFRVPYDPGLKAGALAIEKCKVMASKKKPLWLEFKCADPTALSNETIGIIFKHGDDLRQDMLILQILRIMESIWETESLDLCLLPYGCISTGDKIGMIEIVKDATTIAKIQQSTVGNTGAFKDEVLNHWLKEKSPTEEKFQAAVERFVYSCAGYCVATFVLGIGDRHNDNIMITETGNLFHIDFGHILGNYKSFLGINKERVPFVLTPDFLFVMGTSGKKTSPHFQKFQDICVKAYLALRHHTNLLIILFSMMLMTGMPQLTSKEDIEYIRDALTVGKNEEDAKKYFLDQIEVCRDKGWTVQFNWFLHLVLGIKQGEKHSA
Sequence of PI3Kα (P42336 whole entry, canonical isoform): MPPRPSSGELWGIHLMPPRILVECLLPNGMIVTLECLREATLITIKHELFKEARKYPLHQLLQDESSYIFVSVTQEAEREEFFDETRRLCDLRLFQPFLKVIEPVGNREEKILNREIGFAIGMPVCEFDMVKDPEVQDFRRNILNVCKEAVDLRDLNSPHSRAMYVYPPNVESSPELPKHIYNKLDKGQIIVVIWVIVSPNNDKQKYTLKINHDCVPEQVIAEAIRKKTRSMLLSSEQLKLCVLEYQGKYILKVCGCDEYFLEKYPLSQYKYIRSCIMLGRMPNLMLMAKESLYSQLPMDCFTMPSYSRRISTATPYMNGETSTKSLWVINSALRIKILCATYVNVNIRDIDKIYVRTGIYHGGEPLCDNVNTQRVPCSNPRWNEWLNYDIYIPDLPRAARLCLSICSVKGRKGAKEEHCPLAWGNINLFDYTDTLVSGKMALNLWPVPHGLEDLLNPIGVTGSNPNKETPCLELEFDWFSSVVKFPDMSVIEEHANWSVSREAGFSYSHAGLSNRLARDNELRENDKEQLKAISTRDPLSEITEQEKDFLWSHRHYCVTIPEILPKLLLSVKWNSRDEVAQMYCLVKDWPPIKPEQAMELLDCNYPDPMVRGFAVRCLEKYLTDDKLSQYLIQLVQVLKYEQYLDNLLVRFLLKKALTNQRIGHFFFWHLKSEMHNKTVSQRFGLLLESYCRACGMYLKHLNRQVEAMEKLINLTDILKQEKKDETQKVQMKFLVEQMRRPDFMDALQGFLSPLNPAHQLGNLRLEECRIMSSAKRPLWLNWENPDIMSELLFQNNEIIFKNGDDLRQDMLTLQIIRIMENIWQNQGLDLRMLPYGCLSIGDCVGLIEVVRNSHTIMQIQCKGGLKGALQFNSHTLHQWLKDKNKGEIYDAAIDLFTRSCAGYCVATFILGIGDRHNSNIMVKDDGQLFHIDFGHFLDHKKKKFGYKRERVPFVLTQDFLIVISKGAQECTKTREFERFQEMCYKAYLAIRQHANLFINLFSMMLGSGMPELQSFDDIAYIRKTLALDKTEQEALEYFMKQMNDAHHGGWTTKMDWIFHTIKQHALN
Sequence of PI3Kα (P27986 whole entry partner, canonical isoform): as the sequence (P27986 whole entry partner, canonical isoform) above
Sequence of PI3Kβ (P42338 whole entry, canonical isoform): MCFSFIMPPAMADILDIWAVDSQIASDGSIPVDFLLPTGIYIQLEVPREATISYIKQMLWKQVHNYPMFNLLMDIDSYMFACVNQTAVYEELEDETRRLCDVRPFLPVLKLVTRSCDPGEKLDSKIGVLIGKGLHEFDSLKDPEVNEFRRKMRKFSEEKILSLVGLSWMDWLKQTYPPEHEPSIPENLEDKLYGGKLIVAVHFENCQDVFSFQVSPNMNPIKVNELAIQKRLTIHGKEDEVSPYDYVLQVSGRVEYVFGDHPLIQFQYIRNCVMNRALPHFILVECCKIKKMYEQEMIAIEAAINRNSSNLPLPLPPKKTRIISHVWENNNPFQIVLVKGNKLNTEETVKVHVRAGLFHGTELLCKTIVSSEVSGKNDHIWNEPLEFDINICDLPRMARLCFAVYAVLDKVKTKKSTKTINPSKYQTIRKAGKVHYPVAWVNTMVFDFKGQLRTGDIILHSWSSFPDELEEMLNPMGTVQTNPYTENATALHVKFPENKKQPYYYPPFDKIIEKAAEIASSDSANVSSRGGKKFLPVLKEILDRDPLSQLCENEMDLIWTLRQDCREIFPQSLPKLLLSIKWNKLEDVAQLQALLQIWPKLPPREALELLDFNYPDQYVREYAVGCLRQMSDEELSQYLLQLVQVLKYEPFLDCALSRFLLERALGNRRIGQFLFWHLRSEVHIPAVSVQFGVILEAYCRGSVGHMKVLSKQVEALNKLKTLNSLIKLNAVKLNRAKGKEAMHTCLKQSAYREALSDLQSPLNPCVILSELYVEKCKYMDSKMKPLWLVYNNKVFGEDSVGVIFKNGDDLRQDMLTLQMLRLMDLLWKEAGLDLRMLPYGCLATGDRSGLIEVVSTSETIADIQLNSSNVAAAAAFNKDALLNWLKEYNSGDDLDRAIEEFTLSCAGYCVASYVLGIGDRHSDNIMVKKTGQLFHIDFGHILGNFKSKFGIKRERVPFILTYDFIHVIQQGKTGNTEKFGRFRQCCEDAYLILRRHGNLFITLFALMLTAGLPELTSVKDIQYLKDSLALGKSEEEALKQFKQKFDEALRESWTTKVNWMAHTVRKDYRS
Sequence of PI3Kβ (P27986 whole entry partner, canonical isoform): as the sequence (P27986 whole entry partner, canonical isoform) above

Row | Structure (SMILES) | IC50 (BRD4-1) [nM] | IC50 (BRD4-2) [nM] | IC50 (PI3Kδ) [nM] | IC50 (PI3Kγ) [nM] | MYCN protein quantity, Western blot (SKNBE (2) cells) | pAKT, Western blot (SKNBE (2) cells) | MYCN expression (Brd4 ChIP, MYCN promoter) [1] | further results
1 | O=c1cc(N2CCOCC2)oc2c(-c3ccc4c(c3)OCCO4)csc12 [Cmpd 28] | 241 | 1550 | 960 | 158 | decreased | decreased | significantly repressed MYCN expression | IC50 (PI3Kβ): 214 nM; BRD4 inhibition (BRD4): showed activity; spontaneous metastasis (Panc02): blocks spontaneous metastasis; Cyclin D1 mRNA expression (IMR32 cell line): reducing mRNA expression; MYCN mRNA expression (IMR32 cell line): inhibits MYCN expression; luciferase bioimaging of cancer cells (B16 melanoma cells): little evidence of the presence of cancer cells; reduction in metastatic nodules (B16 melanoma cells): 60%; IC50 (PC3): 161 to 440 nM; tolerability / body weight (NB9464 [2]): well tolerated (no body weight loss; tumor growth compared to vehicle (NB9464 [2]): significantly blocked tumor growth
2 | Cc1sc2c(c1C)C(c1ccc(Cl)cc1)=N[C@@H](CC(=O)OC(C)(C)C)c1nnc(C)n1-2 [JQ-1] |  |  | > 50000 | > 50000 | inhibited only MYCN quantities |  | significantly repressed MYCN expression | IC50 (PI3Kα): > 50000 nM; IC50 (SKNBE(2)): 1900 nM; IC50 (NB9464 [3]): 1600 nM; IC50 [4]: 2200 nM; PI3K inhibition (PI3K): does not inhibit PI3K
3 | O=c1cc(N2CCOCC2)oc2c(-c3ccccc3)cccc12 [LY294002, 2-(4-morpholinyl)-8-phenyl-4H-1-benzopyran-4-one] | 5330 | 13100 | 3220 |  | decreased | decreased | significantly repressed MYCN expression | IC50 (PI-3 kinases): 1400 nM
4 | O=c1cc(N2CCNCC2)oc2c(-c3ccccc3)cccc12 [LY303511] |  |  |  |  | inhibited only MYCN quantities |  | significantly repressed MYCN expression | 
5 | CS(=O)(=O)CCNCc1ccc(-c2ccc3ncnc(Nc4ccc(OCc5cccc(F)c5)c(Cl)c4)c3c2)o1 [Lapatinib] |  |  |  |  |  |  |  | breast cancer stem cells, % of cells after treatment (breast cancer stem cells): 5%
